Paper PMC12291913 (Antibiotics, 2025)
Values joined by “and” are separate entries in the source; they are usually repeats but may differ in a detail not shown here. Equal entries are not always repeated. Where two headings read alike, the source gives them in different places.

Columns and labels:
[1] = test system: M. avium clinical isolate Koav 21 (WT); assay: microbe, parasite or virus in culture; format: cell-based; settings: checkerboard; for MIC: Mycobacterium avium
[2] = test system: M. avium clinical isolate Koav 19 (WT); assay: microbe, parasite or virus in culture; format: cell-based; settings: for MIC: Mycobacterium avium
[3] = test system: M. avium clinical isolate Koav 21 (WT); assay: microbe, parasite or virus in culture; format: cell-based; settings: Mycobacterium avium, drug alone, day 14, read-out: MIC
[4] = test system: M. avium clinical isolate Koav 20 (WT); assay: microbe, parasite or virus in culture; format: cell-based; settings: Mycobacterium avium, drug alone, day 14, read-out: MIC
[5] = test system: M. avium clinical isolate Cl-A-2 (GyrA Asp95Tyr); format: cell-based, M. avium subsp. hominissuis
[6] = test system: M. avium clinical isolate Koav 11 (GyrA Asp95Tyr); format: cell-based, M. avium subsp. hominissuis
[7] = test system: M. avium clinical isolate Koav 15 (WT); assay: microbe, parasite or virus in culture; format: cell-based; settings: checkerboard; for MIC: Mycobacterium avium
[8] = test system: M. avium clinical isolate Koav 13 (GyrA Asp95Gly); format: cell-based, M. avium subsp. hominissuis
[9] = test system: M. avium clinical isolate Koav 1 (WT); assay: microbe, parasite or virus in culture; format: cell-based; settings: Mycobacterium avium, drug alone, day 14, read-out: MIC
[10] = test system: M. avium clinical isolate Koav 2 (WT); assay: microbe, parasite or virus in culture; format: cell-based; settings: Mycobacterium avium, drug alone, day 14
[11] = test system: M. avium clinical isolate Koav 25 (WT); assay: microbe, parasite or virus in culture; format: cell-based; settings: for FIC of INH or EMB: pair with WQ-3810; for MIC: Mycobacterium avium
[12] = test system: M. avium clinical isolate Cl-A-2 (GyrA Asp95Tyr); format: cell-based, M. avium subsp. hominissuis; remark: listed apart in the source
[13] = test system: M. avium clinical isolate Koav 13 (GyrA Asp95Gly); format: cell-based, M. avium subsp. hominissuis; remark: listed apart in the source
[14] = test system: M. avium clinical isolate Koav 25 (WT); assay: microbe, parasite or virus in culture; format: cell-based; settings: Mycobacterium avium, drug alone, day 14, read-out: MIC
[15] = test system: M. avium clinical isolate Koav 19 (WT); assay: microbe, parasite or virus in culture; format: cell-based; settings: Mycobacterium avium, drug alone, day 14, read-out: MIC
[16] = test system: M. avium clinical isolate Koav 3 (GyrA Asp95Gly); format: cell-based, M. avium subsp. hominissuis
[17] = test system: M. avium clinical isolate Koav 1 (WT); assay: microbe, parasite or virus in culture; format: cell-based; settings: checkerboard; for MIC of drug alone: single replicates; for MIC: Mycobacterium avium
[18] = test system: M. avium clinical isolate Koav 3 (GyrA Asp95Gly); format: cell-based, M. avium subsp. hominissuis; remark: listed apart in the source
[19] = test system: M. avium clinical isolate Koav 20 (WT); assay: microbe, parasite or virus in culture; format: cell-based; settings: checkerboard; for MIC: Mycobacterium avium
[20] = test system: M. avium clinical isolate Koav 2 (WT); assay: microbe, parasite or virus in culture; format: cell-based; settings: checkerboard; for MIC: Mycobacterium avium
[21] = test system: M. avium clinical isolate Koav 15 (WT); assay: microbe, parasite or virus in culture; format: cell-based; settings: Mycobacterium avium, drug alone, day 14, read-out: MIC
[22] = test system: M. avium clinical isolate Koav 11 (GyrA Asp95Tyr); format: cell-based, M. avium subsp. hominissuis; remark: listed apart in the source
[23] = test system: M. avium clinical isolate Koav 13 (GyrA Asp95Gly); settings: drug alone, previous study ref 17; cited from earlier work
[24] = test system: M. avium clinical isolate Cl-A-2 (GyrA Asp95Tyr); settings: drug alone, previous study ref 17; cited from earlier work
[25] = test system: M. avium clinical isolate Koav 25 (WT); settings: drug alone, previous study ref 17; cited from earlier work
[26] = test system: M. avium clinical isolate Koav 1 (WT); settings: drug alone, previous study ref 17; cited from earlier work
[27] = test system: M. avium clinical isolate Koav 2 (WT); settings: drug alone, previous study ref 17; cited from earlier work
[28] = test system: M. avium clinical isolate Koav 15 (WT); settings: drug alone, previous study ref 17; cited from earlier work
[29] = test system: M. avium clinical isolate Koav 20 (WT); settings: drug alone, previous study ref 17; cited from earlier work
[30] = test system: M. avium clinical isolate Koav 21 (WT); settings: drug alone, previous study ref 17; cited from earlier work
[31] = test system: M. avium clinical isolate Koav 3 (GyrA Asp95Gly); settings: drug alone, previous study ref 17; cited from earlier work
[32] = test system: M. avium clinical isolate Koav 19 (WT); settings: drug alone, previous study ref 17; cited from earlier work
[33] = test system: M. avium clinical isolate Koav 11 (GyrA Asp95Tyr); settings: drug alone, previous study ref 17; cited from earlier work
[34] = Koav 21 (K 21), WT, single replicates, read-out: MIC of drug alone
[35] = read-out: MIC of INH or EMB with 1 µg/ml MXF, Koav 21 (K 21), WT
[36] = Koav 19 (K 19), WT, checkerboard, single replicates
[37] = Koav 19 (K 19), WT, pair with MXF
[38] = Koav 19 (K 19), WT, checkerboard, single replicates, read-out: MIC of drug alone
[39] = read-out: MIC of INH or EMB with 1 µg/ml MXF, Koav 19 (K 19), WT, checkerboard
[40] = Koav 15 (K 15), WT, single replicates, read-out: MIC of drug alone
[41] = read-out: MIC of INH or EMB with 1 µg/ml MXF, Koav 15 (K 15), WT
[42] = read-out: MIC of INH or EMB with WQ-3810, Koav 15 (K 15), WT
[43] = Koav 25 (K 25), WT, checkerboard
[44] = Koav 25 (K 25), WT, checkerboard, single replicates, read-out: MIC of drug alone
[45] = read-out: MIC of INH or EMB with 1 µg/ml MXF, Koav 25 (K 25), WT, checkerboard
[46] = read-out: MIC of INH or EMB with WQ-3810, Koav 25 (K 25), WT, checkerboard
[47] = read-out: MIC of INH or EMB with WQ-3810, Koav 1 (K 1), WT
[48] = Koav 2 (K 2), WT, single replicates, read-out: MIC of drug alone
[49] = read-out: MIC of INH or EMB with WQ-3810, Koav 2 (K 2), WT

CC[C@@H](CO)NCCN[C@@H](CC)CO [EMB, ethambutol]
4 µg/mL and 2 µg/mL: MIC of INH or EMB with 1 µg/ml MXF [16]
1 µg/mL: MIC of INH or EMB with 1 µg/ml MXF ([1]; Koav 21 (K 21), WT)
2 µg/mL and 4 µg/mL: MIC of INH or EMB with 1 µg/ml MXF [5]
2 µg/mL: MIC [1, 35] | MIC [4] | MIC [9] | MIC of INH or EMB with WQ-3810 ([17]; Koav 1 (K 1), WT) | MIC ([19]; Koav 20 (K 20), WT, single replicates, read-out: MIC of drug alone)
16 µg/mL: MIC ([1]; read-out: MIC of INH or EMB with WQ-3810, Koav 21 (K 21), WT) | MIC of drug alone [2, 36] | MIC of drug alone [5] | MIC [6] | MIC [7, 40] | MIC [10] | MIC [11, 45] | MIC [11, 46] | MIC [12] | MIC of INH or EMB with 1 µg/ml MXF [13] | MIC [15] | MIC [18] | MIC [20, 48] | MIC [21]
8 µg/mL: MIC of INH or EMB with WQ-3810 ([2]; Koav 19 (K 19), WT, checkerboard) | MIC [2, 38] | MIC [2, 39] | MIC of INH or EMB with WQ-3810 ([7]; Koav 15 (K 15), WT) | MIC [7, 41] | MIC of INH or EMB with 1 µg/ml MXF [11, 43] | MIC [20, 49]
0.5 µg/mL: FIC of INH or EMB [2, 37] | FIC of INH or EMB ([2]; Koav 19 (K 19), WT, pair with WQ-3810) | FIC of INH or EMB ([11]; Koav 25 (K 25), WT)
8 µg/mL and 4 µg/mL and 2 µg/mL: MIC of drug alone ([17]; Koav 1 (K 1), WT)
8 µg/mL and 16 µg/mL: MIC of INH or EMB with WQ-3810 [13]
4 µg/mL: MIC ([2]; read-out: MIC of INH or EMB with WQ-3810, Koav 19 (K 19), WT, checkerboard) | MIC of INH or EMB with 1 µg/ml MXF ([7]; Koav 15 (K 15), WT) | MIC [7, 42] | MIC [17, 47]
32 µg/mL: MIC [1, 34] | MIC [3] | MIC [8] | MIC [11, 44] | MIC of drug alone [13] | MIC [14] | MIC of drug alone ([20]; Koav 2 (K 2), WT, single replicates)

NNC(=O)c1ccncc1 [INH, isoniazid]
4 to 8 µg/mL: MIC [12]
0.0625 µg/mL: FIC of INH or EMB [2, 37]
2 µg/mL and 1 µg/mL: MIC of INH or EMB with 1 µg/ml MXF [16] | MIC of INH or EMB with WQ-3810 [16]
0.5 µg/mL and 0.25 µg/mL: FIC of INH or EMB [5]
8 µg/mL and 16 µg/mL: MIC of drug alone [22]
2 µg/mL: MIC of INH or EMB with 1 µg/ml MXF [5] | MIC of INH or EMB with WQ-3810 [5] | MIC [11, 45] | MIC [11, 46] | MIC of INH or EMB with 1 µg/ml MXF ([17]; Koav 1 (K 1), WT) | MIC of INH or EMB with 1 µg/ml MXF [22] | MIC of INH or EMB with WQ-3810 [22] | MIC ([19]; read-out: MIC of INH or EMB with 1 µg/ml MXF, Koav 20 (K 20), WT)
8 µg/mL: MIC [2, 38] | MIC [6] | MIC of INH or EMB with WQ-3810 ([7]; Koav 15 (K 15), WT) | MIC [7, 41] | MIC [9] | MIC [11, 44] | MIC [14] | MIC of INH or EMB with WQ-3810 ([17]; Koav 1 (K 1), WT) | MIC ([20]; read-out: MIC of INH or EMB with 1 µg/ml MXF, Koav 2 (K 2), WT)
16 µg/mL: MIC [1, 34] | MIC of drug alone [2, 36] | MIC [3] | MIC [4] | MIC of drug alone ([7]; Koav 15 (K 15), WT, single replicates) | MIC of drug alone ([11]; Koav 25 (K 25), WT, checkerboard, single replicates) | MIC [20, 49]
4 µg/mL: MIC of INH or EMB with 1 µg/ml MXF ([7]; Koav 15 (K 15), WT) | MIC [7, 42] | MIC of INH or EMB with WQ-3810 [11, 43] | MIC [17, 47] | MIC [18] | MIC of INH or EMB with 1 µg/ml MXF ([19]; Koav 20 (K 20), WT)
128 µg/mL: MIC [10] | MIC [20, 48]
8 µg/mL and 4 µg/mL: MIC of INH or EMB with 1 µg/ml MXF [13] | MIC of INH or EMB with WQ-3810 [13]
32 µg/mL and 16 µg/mL and 64 µg/mL: MIC of drug alone ([19]; Koav 20 (K 20), WT, single replicates)
16 µg/mL and 32 µg/mL and 8 µg/mL: MIC of drug alone ([17]; Koav 1 (K 1), WT)
0.25 µg/mL: FIC of INH or EMB ([11]; Koav 25 (K 25), WT)
4 µg/mL and 8 µg/mL: MIC of drug alone [5] | MIC of drug alone [16]
1 µg/mL: MIC [1, 35] | MIC [2, 39] | MIC of INH or EMB with 1 µg/ml MXF [11, 43] | MIC ([17]; read-out: MIC of INH or EMB with 1 µg/ml MXF, Koav 1 (K 1), WT)
32 µg/mL: MIC [7, 40] | MIC [8] | MIC of drug alone [13] | MIC [21]
8 to 16 µg/mL: MIC [15]

C[C@H]1COc2c(N3CCN(C)CC3)c(F)cc3c(=O)c(C(=O)O)cn1c23 [LVX, levofloxacin]
8 µg/mL: MIC [33]
64 µg/mL: MIC [24] | MIC [31]
128 µg/mL: MIC [23]
2 µg/mL: MIC [27] | MIC [32]
4 µg/mL: MIC [25] | MIC [28] | MIC [30]
<0.5 µg/mL: MIC [26] | MIC [29]
